Results published in BigSolDB 2.1.

CO/N=C(/C(=O)N[C@@H]1C(=O)N2C(C(=O)O)=C(COC(N)=O)CS[C@H]12)c1ccco1
solubility (mole fraction)
Settings | 278.5 K | 283.4 K | 288.3 K | 293.3 K | 298.3 K | 303.5 K | 308.3 K | 313.4 K
in acetone | 0.00362 | 0.0036 | 0.00355 | 0.00342 | 0.00337 | 0.00331 | 0.00327 | 0.00324
in ethanol | 0.00019 | 0.00022 | 0.00028 | 0.00032 | 0.00037 | 0.00052 | 0.00056 | 0.00061
in isopropanol | 6e-05 | 9e-05 | 0.00011 | 0.00012 | 0.00012 | 0.00015 | 0.00027 | 0.00032
in water | 3e-05 | 4e-05 | 4e-05 | 6e-05 | 7e-05 | 0.00012 | 0.00022 | 0.00026
